{"source": "ChEMBL document CHEMBL3046027", "about": "“In vitro and in vivo antifungal activity of synthetic pure isothiocyanates against Sclerotinia sclerotiorum” (Pest Manag Sci, 2011)", "key": {"Sclerotinia sclerotiorum [1]": {"tested_on": "Sclerotinia sclerotiorum", "assay": "Fungistatic activity in Sclerotinia sclerotiorum assessed as sclerotial viability measured at 20 degC after 5 days", "assay_type": "functional, organism-based", "conditions": "120 h"}, "Sclerotinia sclerotiorum [2]": {"tested_on": "Sclerotinia sclerotiorum", "assay": "Antifungal activity against Sclerotinia sclerotiorum assessed as inhibition of mycelial growth in volatile phase at 469 umol/l measured at 20 degC after 5 days", "assay_type": "functional", "conditions": "120 h, read-out: GI"}, "Sclerotinia sclerotiorum [3]": {"tested_on": "Sclerotinia sclerotiorum", "assay": "Fungistatic activity in Sclerotinia sclerotiorum assessed as viability in volatile phase at 335 umol/l measured at 20 degC after 5 days relative to control", "assay_type": "functional", "conditions": "120 h, read-out: GI"}, "Sclerotinia sclerotiorum [4]": {"tested_on": "Sclerotinia sclerotiorum", "assay": "Antifungal activity against Sclerotinia sclerotiorum assessed as inhibition of mycelial growth in volatile phase at 34 umol/l measured at 20 degC after 5 days", "assay_type": "functional", "conditions": "120 h, read-out: GI"}, "Sclerotinia sclerotiorum [5]": {"tested_on": "Sclerotinia sclerotiorum", "assay": "Fungitoxic activity in Sclerotinia sclerotiorum assessed as viability in volatile phase at 670 umol/l measured at 20 degC after 5 days relative to control", "assay_type": "functional", "conditions": "120 h, read-out: GI"}, "Sclerotinia sclerotiorum [6]": {"tested_on": "Sclerotinia sclerotiorum", "assay": "Fungistatic activity in Sclerotinia sclerotiorum assessed as inhibition of mycelial growth in contact phase at 2011 umol/l measured at 20 degC after 5 days relative to control", "assay_type": "functional", "conditions": "120 h, read-out: GI"}, "Sclerotinia sclerotiorum [7]": {"tested_on": "Sclerotinia sclerotiorum", "assay": "Fungitoxic activity in Sclerotinia sclerotiorum assessed as inhibition of mycelial growth in volatile phase at 469 umol/l measured at 20 degC after 5 days relative to control", "assay_type": "functional", "conditions": "120 h, read-out: GI"}, "Sclerotinia sclerotiorum [8]": {"tested_on": "Sclerotinia sclerotiorum", "assay": "Antifungal activity against Sclerotinia sclerotiorum assessed as inhibition of mycelial growth in volatile phase at 67 umol/l measured at 20 degC after 5 days", "assay_type": "functional", "conditions": "120 h, read-out: GI"}, "Sclerotinia sclerotiorum [9]": {"tested_on": "Sclerotinia sclerotiorum", "assay": "In vivo antifungal Sclerotinia sclerotiorum in Pepper (Capsicum annuum L. cv. Sera Demre) assessed as inhibition of mycelial growth in volatile phase at 67 umol/L measured after 10 to 14 weeks", "assay_type": "functional"}, "Sclerotinia sclerotiorum [10]": {"tested_on": "Sclerotinia sclerotiorum", "assay": "Fungistatic activity in Sclerotinia sclerotiorum assessed as inhibition of mycelial growth in contact phase measured at 20 degC after 5 days", "assay_type": "functional, organism-based", "conditions": "120 h"}, "Sclerotinia sclerotiorum [11]": {"tested_on": "Sclerotinia sclerotiorum", "assay": "Fungistatic activity in Sclerotinia sclerotiorum assessed as inhibition of carpogenic germination in volatile phase at 670 umol/l measured at 20 degC after 5 days relative to control", "assay_type": "functional", "conditions": "120 h"}, "Sclerotinia sclerotiorum [12]": {"tested_on": "Sclerotinia sclerotiorum", "assay": "Antifungal activity against Sclerotinia sclerotiorum assessed as inhibition of germination in volatile phase at 34 umol/l measured at 20 degC after 5 days", "assay_type": "functional", "conditions": "120 h"}, "Sclerotinia sclerotiorum [13]": {"tested_on": "Sclerotinia sclerotiorum", "assay": "Fungistatic activity in Sclerotinia sclerotiorum assessed as inhibition of mycelial growth in volatile phase measured at 20 degC after 5 days", "assay_type": "functional, organism-based", "conditions": "120 h"}, "Sclerotinia sclerotiorum [14]": {"tested_on": "Sclerotinia sclerotiorum", "assay": "In vivo antifungal Sclerotinia sclerotiorum in Pepper (Capsicum annuum L. cv. Sera Demre) assessed as inhibition of mycelial growth in volatile phase at 134 umol/L measured after 10 to 14 weeks", "assay_type": "functional"}, "Sclerotinia sclerotiorum [15]": {"tested_on": "Sclerotinia sclerotiorum", "assay": "Antifungal activity against Sclerotinia sclerotiorum assessed as inhibition of germination in volatile phase at 201 umol/l measured at 20 degC after 5 days", "assay_type": "functional", "conditions": "120 h"}, "Sclerotinia sclerotiorum [16]": {"tested_on": "Sclerotinia sclerotiorum", "assay": "Antifungal activity against Sclerotinia sclerotiorum assessed as inhibition of mycelial growth in contact phase at 603 umol/l measured at 20 degC after 5 days", "assay_type": "functional", "conditions": "120 h, read-out: GI"}, "Sclerotinia sclerotiorum [17]": {"tested_on": "Sclerotinia sclerotiorum", "assay": "Antifungal activity against Sclerotinia sclerotiorum assessed as inhibition of mycelial growth in contact phase at 2011 umol/l measured at 20 degC after 5 days", "assay_type": "functional", "conditions": "120 h, read-out: GI"}, "Sclerotinia sclerotiorum [18]": {"tested_on": "Sclerotinia sclerotiorum", "assay": "Antifungal activity against Sclerotinia sclerotiorum assessed as inhibition of mycelial growth in contact phase at 670 umol/l measured at 20 degC after 5 days", "assay_type": "functional", "conditions": "120 h, read-out: GI"}, "Sclerotinia sclerotiorum [19]": {"tested_on": "Sclerotinia sclerotiorum", "assay": "Antifungal activity against Sclerotinia sclerotiorum assessed as inhibition of germination in volatile phase at 67 umol/l measured at 20 degC after 5 days", "assay_type": "functional", "conditions": "120 h"}, "Sclerotinia sclerotiorum [20]": {"tested_on": "Sclerotinia sclerotiorum", "assay": "Fungistatic activity in Sclerotinia sclerotiorum assessed as inhibition of carpogenic germination in volatile phase at 67 umol/l measured at 20 degC after 5 days relative to control", "assay_type": "functional", "conditions": "120 h"}, "Sclerotinia sclerotiorum [21]": {"tested_on": "Sclerotinia sclerotiorum", "assay": "Fungistatic activity in Sclerotinia sclerotiorum assessed as inhibition of carpogenic germination in volatile phase at 34 umol/l measured at 20 degC after 5 days relative to control", "assay_type": "functional", "conditions": "120 h"}, "Sclerotinia sclerotiorum [22]": {"tested_on": "Sclerotinia sclerotiorum", "assay": "Antifungal activity against Sclerotinia sclerotiorum assessed as inhibition of mycelial growth in contact phase at 469 umol/l measured at 20 degC after 5 days", "assay_type": "functional", "conditions": "120 h, read-out: GI"}, "Sclerotinia sclerotiorum [23]": {"tested_on": "Sclerotinia sclerotiorum", "assay": "Antifungal activity against Sclerotinia sclerotiorum assessed as inhibition of mycelial growth in volatile phase at 670 umol/l measured at 20 degC after 5 days", "assay_type": "functional", "conditions": "120 h, read-out: GI"}, "Sclerotinia sclerotiorum [24]": {"tested_on": "Sclerotinia sclerotiorum", "assay": "Antifungal activity against Sclerotinia sclerotiorum assessed as inhibition of mycelial growth in volatile phase at 335 umol/l measured at 20 degC after 5 days", "assay_type": "functional", "conditions": "120 h, read-out: GI"}, "Sclerotinia sclerotiorum [25]": {"tested_on": "Sclerotinia sclerotiorum", "assay": "Antifungal activity against Sclerotinia sclerotiorum assessed as inhibition of germination in volatile phase at 670 umol/l measured at 20 degC after 5 days", "assay_type": "functional", "conditions": "120 h"}, "Sclerotinia sclerotiorum [26]": {"tested_on": "Sclerotinia sclerotiorum", "assay": "Fungistatic activity in Sclerotinia sclerotiorum assessed as inhibition of carpogenic germination in volatile phase at 335 umol/l measured at 20 degC after 5 days relative to control", "assay_type": "functional", "conditions": "120 h"}, "Sclerotinia sclerotiorum [27]": {"tested_on": "Sclerotinia sclerotiorum", "assay": "Antifungal activity against Sclerotinia sclerotiorum assessed as inhibition of mycelial growth in contact phase at 1340 umol/l measured at 20 degC after 5 days", "assay_type": "functional", "conditions": "120 h, read-out: GI"}, "Sclerotinia sclerotiorum [28]": {"tested_on": "Sclerotinia sclerotiorum", "assay": "Antifungal activity against Sclerotinia sclerotiorum assessed as inhibition of germination in volatile phase at 335 umol/l measured at 20 degC after 5 days", "assay_type": "functional", "conditions": "120 h"}}}
{"smiles": "S=C=NCCc1ccccc1", "note": "[PHENETHYLISOTHIOCYANATE]", "values": [{"measurement": "EC50", "setting": "Sclerotinia sclerotiorum [1]", "value": 114, "unit": "µM"}, {"measurement": "inhibition of growth at 469 µM", "setting": "Sclerotinia sclerotiorum [2]", "value": 64, "unit": "%"}, {"measurement": "inhibition of growth at 335 µM", "setting": "Sclerotinia sclerotiorum [3]", "value": 100, "unit": "%"}, {"measurement": "inhibition of growth at 34 µM", "setting": "Sclerotinia sclerotiorum [4]", "value": 24.3, "unit": "%"}, {"measurement": "inhibition of growth at 670 µM", "setting": "Sclerotinia sclerotiorum [5]", "value": 100, "unit": "%"}, {"measurement": "inhibition of growth at 2011 µM", "setting": "Sclerotinia sclerotiorum [6]", "value": 100, "unit": "%"}, {"measurement": "inhibition of growth at 469 µM", "setting": "Sclerotinia sclerotiorum [7]", "value": 100, "unit": "%"}, {"measurement": "inhibition of growth at 67 µM", "setting": "Sclerotinia sclerotiorum [8]", "value": 42.7, "unit": "%"}, {"measurement": "inhibition in vivo at 67 µM", "setting": "Sclerotinia sclerotiorum [9]", "value": 70, "unit": "%"}, {"measurement": "EC50", "setting": "Sclerotinia sclerotiorum [10]", "value": 650, "unit": "µM"}, {"measurement": "inhibition at 670 µM", "setting": "Sclerotinia sclerotiorum [11]", "value": 82.5, "unit": "%"}, {"measurement": "inhibition at 34 µM", "setting": "Sclerotinia sclerotiorum [12]", "value": 6.7, "unit": "%"}, {"measurement": "EC50", "setting": "Sclerotinia sclerotiorum [13]", "value": 144, "unit": "µM"}, {"measurement": "inhibition in vivo at 134 µM", "setting": "Sclerotinia sclerotiorum [14]", "value": 76.7, "unit": "%"}, {"measurement": "inhibition at 201 µM", "setting": "Sclerotinia sclerotiorum [15]", "value": 66.7, "unit": "%"}, {"measurement": "inhibition of growth at 603 µM", "setting": "Sclerotinia sclerotiorum [16]", "value": 24.3, "unit": "%"}, {"measurement": "inhibition of growth at 2011 µM", "setting": "Sclerotinia sclerotiorum [17]", "value": 100, "unit": "%"}, {"measurement": "inhibition of growth at 670 µM", "setting": "Sclerotinia sclerotiorum [18]", "value": 59.7, "unit": "%"}, {"measurement": "inhibition at 67 µM", "setting": "Sclerotinia sclerotiorum [19]", "value": 26.7, "unit": "%"}, {"measurement": "inhibition at 67 µM", "setting": "Sclerotinia sclerotiorum [20]", "value": 55, "unit": "%"}, {"measurement": "inhibition at 34 µM", "setting": "Sclerotinia sclerotiorum [21]", "value": 12.5, "unit": "%"}, {"measurement": "inhibition of growth at 469 µM", "setting": "Sclerotinia sclerotiorum [22]", "value": 5, "unit": "%"}, {"measurement": "inhibition of growth at 670 µM", "setting": "Sclerotinia sclerotiorum [23]", "value": 100, "unit": "%"}, {"measurement": "inhibition of growth at 335 µM", "setting": "Sclerotinia sclerotiorum [24]", "value": 51.3, "unit": "%"}, {"measurement": "inhibition at 670 µM", "setting": "Sclerotinia sclerotiorum [25]", "value": 100, "unit": "%"}, {"measurement": "inhibition at 335 µM", "setting": "Sclerotinia sclerotiorum [26]", "value": 57.5, "unit": "%"}, {"measurement": "inhibition of growth at 1340 µM", "setting": "Sclerotinia sclerotiorum [27]", "value": 92.5, "unit": "%"}, {"measurement": "inhibition at 335 µM", "setting": "Sclerotinia sclerotiorum [28]", "value": 100, "unit": "%"}]}
